This test addresses T1, human PAR-2 (hPAR-2) receptor expressed in HEK-293 T cells in an endogenous manner (Homo sapiens, UniProt P55085).
T1 construct: human PAR-2 (hPAR-2) receptor expressed in HEK-293 T cells in an endogenous manner; endogenous in cells; host or cells: HEK-293 T cells
T1 sequence (P55085 26-397): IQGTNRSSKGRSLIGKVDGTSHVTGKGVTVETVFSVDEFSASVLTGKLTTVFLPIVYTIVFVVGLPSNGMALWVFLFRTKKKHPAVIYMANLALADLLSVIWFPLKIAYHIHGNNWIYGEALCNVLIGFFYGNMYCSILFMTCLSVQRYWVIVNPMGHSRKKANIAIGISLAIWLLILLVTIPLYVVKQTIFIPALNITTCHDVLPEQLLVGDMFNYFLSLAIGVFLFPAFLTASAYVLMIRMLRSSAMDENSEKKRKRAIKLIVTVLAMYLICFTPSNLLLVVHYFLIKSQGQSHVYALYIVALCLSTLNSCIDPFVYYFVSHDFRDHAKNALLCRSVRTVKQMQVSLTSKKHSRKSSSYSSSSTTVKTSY
As to the kind of experiment: In vitro human PAR-2 functional antagonist activity using calcium assays (Fluo4AM, FLIPR Tetra). The format is cell-based. The settings on record: HEK-293 T cells stimulated by an EC80 of the 2-Furoyl-LIGRLO-NH2 peptide after 10 min incubation with compound; 20 concentrations, duplicate, two independent experiments. How it is done:
In vitro human PAR-2 functional antagonist activity using calcium assays
Examples of the present invention were tested successively for their agonist and antagonist activities on human PAR-2 (hPAR-2) receptor expressed in HEK-293 T cells in an endogenous manner. Compounds exert agonist activity if, by themselves in absence of the 2-Furoyl-LIGRLO-NH2 peptide (selective hPAR-2 agonist), they activate PAR-2; they exert antagonist activity if they decrease the action of the 2-Furoyl-LIGRLO-NH2 peptide on the receptor. The assay used to determine compound activity is based on calcium measurement.
Cell Culture: HEK-293 T cells were maintained in Dulbecco's Modified Eagle's Medium supplemented with 10% Foetal Calf Serum, 1% Penicillin/Streptomycin at 37° C./5% CO2. Flasks for tests (F75) are seeded with 6e+06 cells 24 h before the experiment at 37° C./5% CO2.
Calcium assay: Receptor activity was detected by changes in intracellular calcium measured using the fluorescent Ca^2+ sensitive dye, Fluo4AM (Molecular Probes).
The day of the assay, medium was replaced by assay buffer (HBSS 1× (Gibco 14175-053), Hepes 20 mM, MgSO4-7H2O 1 mM, Na2CO3 3.3 mM, CaCl2-2H2O 1.3 mM, 0.5% BSA, Probenecid 2.5 mM, 0.1 mg/mL Pluronic Acid) and complemented with 1 μM Fluo4AM and cells were incubated during 1:30 h at 37° C.
Cells were then detached, resuspended in assay buffer and seeded in 384 wells, transparent-flat bottom black walled plates (2e+04 cells per well). Plates were incubated at +22° C. for 20 min. Compounds stock solutions were prepared in 100% DMSO and dilutions in test buffer were carried out in polypropylene plates with a digital dispenser (D300e, Tecan). Compounds were added to the cells and intracellular Ca^2+ measurements were collected at the same time on FLIPR Tetra® (Molecular Devices) with specific filters (Exc: 470-495 nm/Em: 515-575 nm).
Agonist and antagonist activities of compounds were consecutively evaluated on the same cell plate. Agonist activity was first measured after 10 min incubation with the compound alone. Then, cells were stimulated by an EC80 of the 2-Furoyl-LIGRLO-NH2 peptide and fluorescence was recorded for an additional 5 min. EC80 of the 2-Furoyl-LIGRLO-NH2 peptide was the concentration giving 80% of the maximal 2-Furoyl-LIGRLO-NH2 response. Agonist activities are evaluated in comparison to basal signals evoked by assay buffer or maximal 2-Furoyl-LIGRLO-NH2 response. […] Antagonist activities are evaluated in comparison to basal signals evoked by assay buffer or EC80 of 2-Furoyl-LIGRLO-NH2 alone.

Where a name gives a salt, the structure may show the parent alone.

The term IC50 denotes the concentration that inhibits the measured activity by half.

As for `COC1CC(n2cc(-c3ccc(Cl)c(F)c3)c3ccc(C(=O)N4CCNC(=O)C4(C)C)nc32)C1` (stereo not drawn) [Example 28, 4-(3-(4-chloro-3-fluorophenyl)-1-(3-methoxycyclobutyl)-1H-pyrrolo[2,3-b]pyridine-6-carbonyl)-3,3-dimethylpiperazin-2-one], the IC50 is below 0.02 µM.

As to `CC(C)Cc1nn(Cc2ccc(Cl)c(F)c2)c2ccc(C(=O)N3CCNC(=O)C3(C)C)nc12` [Example 78, 4-(1-(4-chloro-3-fluorobenzyl)-3-isobutyl-1H-pyrazolo[4,3-b]pyridine-5-carbonyl)-3,3-dimethylpiperazin-2-one], the IC50 is above 10 µM.

Regarding `CC(C)(C)c1cn(-c2ccc(Cl)c(F)c2)c2ccc(C(=O)N3CCNC(=O)C3(C)C)nc12` [Example 221, 4-(3-(tert-butyl)-1-(4-chloro-3-fluorophenyl)-1H-pyrrolo[3,2-b]pyridine-5-carbonyl)-3,3-dimethylpiperazin-2-one], the IC50 is below 0.02 µM.

`CCOC(=O)c1ccc(N2CCN(C(=O)c3ccn4c(-c5ccc(Cl)cc5)nc(CC(C)C)c4c3)C(C)(C)C2)nc1` [Example 218, ethyl 6-(4-(3-(4-chlorophenyl)-1-isobutylimidazo[1,5-a]pyridine-7-carbonyl)-3,3-dimethylpiperazin-1-yl)nicotinate]: the IC50 was above 10 µM.

In the case of `CC(C)Cn1cc(-c2ccc(Cl)c(F)c2)c2ccc(C(=O)N3CCC(CC(=O)O)CC3)cc21` [Example 204, 2-(1-(3-(4-chloro-3-fluorophenyl)-1-isobutyl-1H-indole-6-carbonyl)piperidin-4-yl)acetic acid], the IC50 lay in the range of 0.02 to 10 µM.

Consider `Cc1cc(C2CCN(C(=O)c3ccc4c(-c5ccc(Cl)c(F)c5)cn(C(C)(C)C)c4n3)CC2)nc(C)c1C(=O)O` [Example 168, 6-(1-(1-(tert-butyl)-3-(4-chloro-3-fluorophenyl)-1H-pyrrolo[2,3-b]pyridine-6-carbonyl)piperidin-4-yl)-2,4-dimethylnicotinic acid], for which the IC50 lay in the range of 0.02 to 10 µM.

In the case of `CC(C)(C#N)c1ccnc(N2CCN(C(=O)c3ccc4c(-c5ccc(Cl)c(F)c5)cn(C(C)(C)C)c4n3)C(C)(C)C2)c1` [Example 176, 2-(2-(4-(1-(tert-butyl)-3-(4-chloro-3-fluorophenyl)-1H-pyrrolo[2,3-b]pyridine-6-carbonyl)-3,3-dimethylpiperazin-1-yl)pyridin-4-yl)-2-methylpropanenitrile], the IC50 is below 0.02 µM.

As for `CC(C)Cn1cc(C2=CCN(C)CC2)c2ccc(C(=O)N3CCNC(=O)C3(C)C)nc21` [Example 91, 4-(1-isobutyl-3-(1-methyl-1,2,3,6-tetrahydropyridin-4-yl)-1H-pyrrolo[2,3-b]pyridine-6-carbonyl)-3,3-dimethylpiperazin-2-one hydrochloride], the IC50 was above 10 µM.

For the molecule `CC1(C)CN(c2ccc(P(=O)(O)O)cn2)CCN1C(=O)c1ccc2c(-c3ccc(Cl)c(F)c3)cn(C(C)(C)C)c2n1` [Example 194, (6-(4-(1-(tert-butyl)-3-(4-chloro-3-fluorophenyl)-1H-pyrrolo[2,3-b]pyridine-6-carbonyl)-3,3-dimethylpiperazin-1-yl)pyridin-3-yl)phosphonic acid], the IC50 is above 10 µM.

In the case of `COCC(C)(C)n1cc(-c2ccc(Cl)c(F)c2)c2ccc(C(=O)N3CCN(c4cc(C)c(C(=O)O)c(C)n4)CC3(C)C)nc21` [Example 152, 6-(4-(3-(4-chloro-3-fluorophenyl)-1-(1-methoxy-2-methylpropan-2-yl)-1H-pyrrolo[2,3-b]pyridine-6-carbonyl)-3,3-dimethylpiperazin-1-yl)-2,4-dimethylnicotinic acid], the IC50 is below 0.02 µM.

On to `CC(C)Cn1cc(-c2cccc(F)c2)c2ccc(C(=O)N3CCNC(=O)C3(C)C)nc21` [Example 114, 4-(3-(3-fluorophenyl)-1-isobutyl-1H-pyrrolo[2,3-b]pyridine-6-carbonyl)-3,3-dimethylpiperazin-2-one], for which the IC50 lay within 0.02 to 10 µM.

On to `CC1(C)C(=O)NCCN1C(=O)c1ccc2c(-c3ccc(Cl)c(F)c3)cn(CC(F)(F)F)c2n1` [Example 31, 4-(3-(4-chloro-3-fluorophenyl)-1-(2,2,2-trifluoroethyl)-1H-pyrrolo[2,3-b]pyridine-6-carbonyl)-3,3-dimethylpiperazin-2-one], for which the IC50 lay in the range of 0.02 to 10 µM.

For `CC(C)(C)n1cc(-c2ccc(Cl)c(F)c2)c2ccc(C(=O)N3CCC(CC(N)=O)CC3)nc21` [Example 163, 2-(1-(1-(tert-butyl)-3-(4-chloro-3-fluorophenyl)-1H-pyrrolo[2,3-b]pyridine-6-carbonyl)piperidin-4-yl)acetamide], the IC50 lay in the range of 0.02 to 10 µM.

As for `CC(C)Cn1cc(-c2ccccc2OC(F)(F)F)c2ccc(C(=O)N3CCNC(=O)C3(C)C)nc21` [Example 112, 4-(1-isobutyl-3-(2-(trifluoromethoxy)phenyl)-1H-pyrrolo[2,3-b]pyridine-6-carbonyl)-3,3-dimethylpiperazin-2-one], the IC50 is 0.02 to 10 µM.

`CC1(C)C(=O)NCCN1C(=O)c1ccc2c(-c3ccc(Cl)c(F)c3)cn(CC3CC3)c2n1` [Example 35, 4-(3-(4-chloro-3-fluorophenyl)-1-(cyclopropylmethyl)-1H-pyrrolo[2,3-b]pyridine-6-carbonyl)-3,3-dimethylpiperazin-2-one]: the IC50 was below 0.02 µM.

On to `COC(=O)c1c(C)cc(N2CCN(C(=O)c3ccc4c(n3)c(C(C)(C)C)nn4-c3ccc(Cl)c(F)c3)C(C)(C)C2)nc1C` [Example 58, methyl 6-(4-(3-(tert-butyl)-1-(4-chloro-3-fluorophenyl)-1H-pyrazolo[4,3-b]pyridine-5-carbonyl)-3,3-dimethylpiperazin-1-yl)-2,4-dimethylnicotinate], for which the IC50 is above 10 µM.

In the case of `CC(C)Cc1nn(-c2ccc(Cl)cc2)c2ccc(C(=O)N3CCNC(=O)C3(C)C)nc12` [Example 85, 4-(1-(4-chlorophenyl)-3-isobutyl-1H-pyrazolo[4,3-b]pyridine-5-carbonyl)-3,3-dimethylpiperazin-2-one], the IC50 fell in the range of 0.02 to 10 µM.

As for `CN(C)C(=O)c1ccc(N2CCN(C(=O)c3ccc4c(-c5ccc(Cl)c(F)c5)cn(C(C)(C)C)c4n3)C(C)(C)C2)nc1` [Example 139, 6-(4-(1-(tert-butyl)-3-(4-chloro-3-fluorophenyl)-1H-pyrrolo[2,3-b]pyridine-6-carbonyl)-3,3-dimethylpiperazin-1-yl)-N,N-dimethylnicotinamide], the IC50 is below 0.02 µM.

`CC1(C)C(=O)NCCN1C(=O)c1ccc2c(n1)c(C1CC1)nn2-c1ccc(Cl)c(F)c1` [Example 77, 4-(1-(4-chloro-3-fluorophenyl)-3-cyclopropyl-1H-pyrazolo[4,3-b]pyridine-5-carbonyl)-3,3-dimethylpiperazin-2-one]: the IC50 is 0.02 to 10 µM.

For the molecule `O=C(c1ccc2c(-c3ccc(Cl)c(F)c3)cn(CC(F)(F)F)c2n1)N1CCCOCC1` [Example 32, (3-(4-chloro-3-fluorophenyl)-1-(2,2,2-trifluoroethyl)-1H-pyrrolo[2,3-b]pyridin-6-yl)(1,4-oxazepan-4-yl)methanone], the IC50 is above 10 µM.

`CC(C)Cc1nn(-c2ccccc2Cl)c2ccc(C(=O)N3CCNC(=O)C3(C)C)nc12` [Example 74, 4-(1-(2-chlorophenyl)-3-isobutyl-1H-pyrazolo[4,3-b]pyridine-5-carbonyl)-3,3-dimethylpiperazin-2-one]: the IC50 was above 10 µM.

The values are drawn from patent publication US20240066027A1 (DOMAIN THERAPEUTICS, priority 2020, published 2024).
